# Laboratory results published in patent US8329691B2, “Amide compounds and use of the same” (Takeda Pharmaceutical Company Limited, priority 2007, dated 2012).
# Structures can show the parent of a compound that is named as a salt.
# Target: T1, human renin (Homo sapiens, UniProt P00797)
# T1 construct: taking the active type (67-406); made in house
# T1 sequence (P00797 67-406): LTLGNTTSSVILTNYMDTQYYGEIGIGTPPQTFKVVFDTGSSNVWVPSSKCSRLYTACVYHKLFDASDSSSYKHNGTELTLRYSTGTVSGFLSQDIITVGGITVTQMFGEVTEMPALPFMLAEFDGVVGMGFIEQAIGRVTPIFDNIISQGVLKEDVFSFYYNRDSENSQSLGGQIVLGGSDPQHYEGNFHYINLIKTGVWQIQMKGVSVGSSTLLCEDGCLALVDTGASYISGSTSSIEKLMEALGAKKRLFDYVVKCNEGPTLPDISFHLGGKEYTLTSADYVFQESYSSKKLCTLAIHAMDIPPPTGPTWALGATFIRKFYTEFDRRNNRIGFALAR
# Assay: Measurement of renin inhibition value - B (angiotensinogen substrate, angiotensin I EIA)
# Assay type: biochemical
# Settings: 1 μM test compound, pH 7.4, 37° C., 30 min
# Protocol: After the reaction, 0.4 ml of immobilized trypsin inhibitor (Pierce Biotechnology, Inc.) was added to remove the trypsin used in the activation by adsorption. The reaction liquid containing the active type renin was concentrated using Vivaspin 20 (molecular weight cut off 10,000, Vivascience, Inc.), and was diluted with 20 mM Tris-hydrochloric acid (pH 8.0).
# (5) Purification of Angiotensinogen
# After transfection of the plasmid DNA, the cells were subjected to shaking culture under the conditions of 37° C., 8% CO2 and 125 rpm for 3 days. A 600-ml aliquot of the culture medium was centrifuged at 2,000 rpm for 10 min to recover the culture supernatant containing angiotensinogen. To the culture supernatant was added ammonium sulfate (30% saturated concentration), and the mixture was thoroughly stirred and centrifuged at 8,000 rpm for 20 min. The obtained supernatant was added to TOYO Pearl butyl 650M (2×5 cm, Tosoh Corporation) equilibrated with 50 mM tris-hydrochloric acid (pH 8.0) containing 30% saturated ammonium sulfate, at a flow rate of 25 ml/min to allow adsorption. After washing with equilibration buffer, angiotensinogen was eluted by linear concentration gradient from the buffer used for equilibration to 20 mM tris-hydrochloric acid (pH 8.0). The eluate containing angiotensinogen was applied to repeated concentration and dilution using Vivaspin 20 (molecular weight cut off 10,000, Vivascience, Inc.), and the buffer was changed to 20 mM tris-hydrochloric acid (pH 8.0). The eluate was fed to a 6-ml RESOURCE Q column (Amersham Biosciences, Inc.) equilibrated with 20 mM Tris-hydrochloric acid (pH 8.0) containing 50 mM sodium chloride at a flow rate of 6 ml/min to adsorb the angiotensinogen. After washing the column with the buffer solution used in the equilibration, elution was carried out by means of a linear concentration gradient of sodium chloride from 50 mM to 400 mM. The fractions containing angiotensinogen were collected and concentrated using Vivaspin 20 (molecular weight cut off 10,000, Vivascience, Inc.) to a volume of about 2 ml.
# (7) Measurement of Renin Inhibition Value—B
# As a substrate for renin activity measurement, the angiotensinogen mentioned in (5) above was used. 1 μeach of the test compound (containing 100% DMSO) was added to each well of a 384-well plate (ABgene). Renin was diluted with a buffer solution for reaction (20 mM sodium phosphate (pH 7.4)) to a concentration of 57 pM, and 14 μl each of the dilution was added to each well. The dilution was left to stand at 37° C. for 10 min, and then 5 μl of each of a 6 μM solution of substrate angiotensinogen was added to each well to initiate the reaction. […] The amount of angiotensin I produced by an enzyme reaction was quantified by Enzyme immunoassay (EIA) described below.
# Anti-angiotensin I antibody (Peninsula Laboratories Inc.) diluted 5,000-fold with PBS was added to each well of a 384 well black plate (Nalge Nunc International Co., Ltd.) by 25 μl, and left standing overnight at 4° C. to immobilize the antibody in the plate. The antibody solution was removed, PBS solution (100 μl) containing 1% BSA was added to each well, and the mixture was left standing at room temperature for 2 hr for blocking. The blocking solution was removed, and each well was washed 5 times with 100 μl of 0.05% Tween20-PBS. […] Then, a biotinated angiotensin I solution (AnaSpec, 15 μl) prepared to 1.6 nM with a buffer [20 mM tris-hydrochloric acid (pH 7.4), 150 mM sodium chloride, 0.01% BSA, 0.05% Tween20] was added to each well, mixed with a plate mixer and left standing at room temperature for 1 hr.
row,human renin inhibitory activity: inhibitory activity (%) at 1 μM [%],Structure (SMILES)
1,98,"COCCCNc1nc(C(C)(C)C)ncc1C(=O)N(CC(C)C)[C@@H]1CNC[C@H](C(=O)N2CCOCC2)C1.O=C(O)/C=C/C(=O)O [Example 207, 2-tert-butyl-4-[(3-methoxypropyl)amino]-N-(2-methylpropyl)-N-[(3S,5R)-5-(morpholin-4-ylcarbonyl)piperidin-3-yl]pyrimidine-5-carboxamide monofumarate]"

# Same assay, conditions: 1 μM test compound, pH 7.4, 37° C., 30 min, read-out: human renin inhibitory activity: inhibitory activity (%) at 1 μM
row,inhibition at 1 µM [%],Structure (SMILES)
1,97,"CC(C)CN(C(=O)c1cnc(C(C)(C)C)nc1NCc1ccco1)[C@@H]1CNC[C@H](C(N)=O)C1 (relative stereo) [Example 93, N-[(3R*,5S*)-5-(aminocarbonyl)piperidin-3-yl]-2-tert-butyl-4-[(2-furylmethyl)amino]-N-isobutylpyrimidine-5-carboxamide dihydrochloride]"
2,97,"CC(C)CN(C(=O)c1cnc(C(C)(C)C)nc1NCc1ccco1)[C@@H]1CNC[C@H](C(=O)N2CCC(C)(O)CC2)C1 (relative stereo) [Example 94, 2-tert-butyl-4-[(2-furylmethyl)amino]-N-{(3R*,5S*)-5-[(4-hydroxy-4-methylpiperidin-1-yl)carbonyl]piperidin-3-yl}-N-isobutylpyrimidine-5-carboxamide dihydrochloride]"
3,97,"CC(C)CN(C(=O)c1cnc(C(C)(C)C)nc1NCc1ccco1)[C@@H]1CNC[C@H](C(C)(C)O)C1 (relative stereo) [Example 95, 2-tert-butyl-4-[(2-furylmethyl)amino]-N-[(3R*,5S*)-5-(1-hydroxy-1-methylethyl)piperidin-3-yl]-N-isobutylpyrimidine-5-carboxamide dihydrochloride]"
4,97,"COC(=O)[C@H]1CNC[C@@H](N(CC(C)C)C(=O)c2cnc(C(C)(C)C)nc2NCCCSC)C1 (relative stereo) [Example 98, methyl (3R*,5S*)-5-[[(2-tert-butyl-4-{[3-(methylthio)propyl]amino}pyrimidin-5-yl)carbonyl](isobutyl)amino]piperidine-3-carboxylate]"
5,97,"COC(=O)[C@H]1CNC[C@@H](N(CC(C)C)C(=O)c2cnc(C(C)(C)C)nc2NCc2ccccc2)C1 (relative stereo) [Example 99, methyl (3R*,5S*)-5-[{[4-(benzylamino)-2-tert-butylpyrimidin-5-yl]carbonyl}(isobutyl)amino]piperidine-3-carboxylate]"
6,58,"CCC1CCCCN1C(=O)c1cnc(C(C)(C)C)nc1NCc1ccco1 (centres unmarked) [Example 21, 2-tert-butyl-5-[(2-ethylpiperidin-1-yl)carbonyl]-N-(2-furylmethyl)pyrimidin-4-amine]"
7,82,"CC(C)(C)c1ncc(C(=O)N2CCC(CN)CC2)c(NCc2ccco2)n1 [Example 58, 5-{[4-(aminomethyl)piperidin-1-yl]carbonyl}-2-tert-butyl-N-(2-furylmethyl)pyrimidin-4-amine dihydrochloride]"
8,86,"CNCC1CCN(C(=O)c2cnc(C(C)(C)C)nc2NCc2ccco2)CC1 [Example 59, 2-tert-butyl-N-(2-furylmethyl)-5-({4-[(methylamino)methyl]piperidin-1-yl}carbonyl)pyrimidin-4-amine dihydrochloride]"
9,54,"CNCC1CCN(C(=O)c2cnc(C(C)C)nc2NCc2ccco2)CC1 [Example 63, N-(2-furylmethyl)-2-isopropyl-5-({4-[(methylamino)methyl]piperidin-1-yl}carbonyl)pyrimidin-4-amine]"
10,98,"CC(C)CN(C(=O)c1cnc(C(C)(C)C)nc1NCc1ncco1)[C@@H]1CNC[C@H](C(=O)N2CCOCC2)C1 [Example 109, 2-tert-butyl-N-(2-methylpropyl)-N-[(3S,5R)-5-(morpholin-4-ylcarbonyl)piperidin-3-yl]-4-[(1,3-oxazol-2-ylmethyl)amino]pyrimidine-5-carboxamide sulfate]"
11,98,"CC(C)CN(C(=O)c1cnc(C(C)(C)C)nc1NCc1ccco1)[C@@H]1CNC[C@H](C(N)=O)C1 [Example 132, 2-tert-butyl-N-[(3S,5R)-5-carbamoylpiperidin-3-yl]-4-[(furan-2-ylmethyl)amino]-N-(2-methylpropyl)pyrimidine-5-carboxamide dihydrochloride]"

row,Structure (SMILES),inhibition at 1 µM [%]
1,"COCCCNc1nc(C(C)(C)C)ncc1C(=O)N(CC(C)C)[C@@H]1CNC[C@H](C(=O)OC)C1 [Example 96, methyl (3R,5S)-5-[({2-tert-butyl-4-[(3-methoxypropyl)amino]pyrimidin-5-yl}carbonyl)(isobutyl)amino]piperidine-3-carboxylate dihydrochloride]",97

# Same assay, conditions: pH 7.4, 1 μM test compound, pH 7.4, 37° C., 30 min, read-out: human renin inhibitory activity: inhibitory activity (%) at 1 μM
row,inhibition at 1 µM [%],Structure (SMILES)
1,97,"COCCCNc1nc(C(C)(C)C)ncc1C(=O)N(CC(C)C)[C@@H]1CNC[C@H](C(=O)N2CCOCC2)C1 [Example 97, 2-tert-butyl-4-[(3-methoxypropyl)amino]-N-(2-methylpropyl)-N-[(3S,5R)-5-(morpholin-4-ylcarbonyl)piperidin-3-yl]pyrimidine-5-carboxamide dihydrochloride]"
